Activity calls are given as the source filed them. The calls are words filed in the database; no cut-off is given here.
Assays:
[1] = system: Echinococcus granulosus; experiment: Parasiticidal activity against Echinococcus granulosus protoscolices […] by eosin exclusion test; type: functional; conditions: 1152 h, time 48 day
[2] = system: Echinococcus granulosus; experiment: Parasiticidal activity against Echinococcus granulosus protoscolices assessed as death rate at 5 uM incubated for 4 days by eosin exclusion test; type: functional; conditions: time 4 day
[3] = system: Echinococcus granulosus; experiment: Parasiticidal activity against Echinococcus granulosus protoscolices assessed as lethal effect incubated for 4 days by eosin exclusion test; type: functional, organism-based; conditions: dose 0.5-5 µM, time 4.0 day
[4] = system: Echinococcus granulosus; experiment: Parasiticidal activity against Echinococcus granulosus protoscolices assessed as death rate at 0.5 uM incubated for 4 days by eosin exclusion test; type: functional; conditions: time 4 day
[5] = system: Echinococcus granulosus; experiment: Parasiticidal activity against Echinococcus granulosus protoscolices assessed as increase in death rate at 5 uM incubated for 4 days by darker staining-based light microscopy; type: functional, organism-based; conditions: time 4.0 day
[6] = system: Echinococcus granulosus; experiment: Parasiticidal activity against Echinococcus granulosus protoscolices assessed as appearance of whole body vacuolation at 5 uM incubated for 4 days by H and E based staining assay; type: functional, organism-based; conditions: time 4.0 day
[7] = system: Echinococcus granulosus; experiment: Parasiticidal activity against Echinococcus granulosus protoscolices assessed as appearance of dissolved and disappeared matrix at 5 uM incubated for 4 days by H and E staining based assay; type: functional, organism-based; conditions: time 4.0 day
[8] = system: Echinococcus granulosus; experiment: Parasiticidal activity against Echinococcus granulosus protoscolices assessed as appearance of disintegrated marginal structure at 5 uM incubated for 4 days by H and E staining based assay; type: functional, organism-based; conditions: time 4.0 day
[9] = system: Echinococcus granulosus; experiment: Parasiticidal activity against Echinococcus granulosus protoscolices assessed as degeneration of outer skin at 5 uM incubated for 4 days by scanning electron microscopy; type: functional, organism-based; conditions: time 4.0 day
[10] = system: Echinococcus granulosus; experiment: Parasiticidal activity against Echinococcus granulosus protoscolices assessed as loss of hooks at 5 uM incubated for 4 days by scanning electron microscopy; type: functional, organism-based; conditions: time 4.0 day
[11] = system: Echinococcus granulosus; experiment: Parasiticidal activity against Echinococcus granulosus protoscolices assessed as loss of suckers at 5 uM incubated for 4 days by scanning electron microscopy; type: functional; conditions: time 4 day
[12] = system: Echinococcus granulosus; experiment: Parasiticidal activity against Echinococcus granulosus assessed as collapse of germinal layers at 100 uM incubated for 4 days by scanning electron microscopy; type: functional, organism-based; conditions: time 4.0 day
[13] = system: Echinococcus granulosus; experiment: Parasiticidal activity against Echinococcus granulosus cyst assessed as seperation from cuticle at 100 uM incubated for 4 days by scanning electron microscopy; type: functional, organism-based; conditions: time 4.0 day
[14] = system: Echinococcus granulosus; experiment: Parasiticidal activity against Echinococcus granulosus cyst assessed as formation of dense aggregates at 100 uM incubated for 4 days by scanning electron microscopy; type: functional, organism-based; conditions: time 4.0 day
[15] = Cmax in Wistar rat at 5 mg/kg, iv by HPLC analysis; type: ADME, organism-based; design: dose 5 mg/kg, route iv; conditions: in vivo
[16] = AUC (0 to infinity) in Wistar rat at 5 mg/kg, iv by HPLC analysis; type: ADME, organism-based; design: dose 5 mg/kg, route iv; conditions: in vivo
[17] = Half life in Wistar rat at 5 mg/kg, iv by HPLC analysis; type: ADME, organism-based; conditions: in vivo
[18] = Half life in Wistar rat at 50 mg/kg, ip by HPLC analysis; type: ADME, organism-based; conditions: in vivo
[19] = Oral bioavailability in Wistar rat at 50 mg/kg, […] by HPLC analysis; type: ADME, organism-based; conditions: in vivo
[20] = system: Echinococcus granulosus; experiment: Parasiticidal activity against Echinococcus granulosus microcyst infected in kunming mouse assessed as mean cyst weight at 50 mg/kg, ip administered for 14 days; type: functional; conditions: time 14 day
[21] = system: Echinococcus granulosus; experiment: Parasiticidal activity against Echinococcus granulosus microcyst infected in kunming mouse assessed as mean cyst weight at 50 mg/kg, ip administered for 28 days; type: functional; conditions: time 28 day
[22] = system: Echinococcus granulosus; experiment: Parasiticidal activity against Echinococcus granulosus microcyst infected in kunming mouse assessed as mean cyst weight at 25 mg/kg, ip administered for 14 days; type: functional; conditions: time 14 day
[23] = system: Echinococcus granulosus; experiment: Parasiticidal activity against Echinococcus granulosus microcyst infected in kunming mouse assessed as mean cyst weight at 25 mg/kg, ip administered for 28 days; type: functional; conditions: time 28 day
[24] = system: Echinococcus granulosus; experiment: Parasiticidal activity against Echinococcus granulosus microcyst infected in kunming mouse assessed as mean cyst weight at 12.5 mg/kg, ip administered for 14 days; type: functional; conditions: time 14 day
[25] = system: Echinococcus granulosus; experiment: Parasiticidal activity against Echinococcus granulosus microcyst infected in kunming mouse assessed as mean cyst weight at 12.5 mg/kg, ip administered for 28 days; type: functional; conditions: time 28 day
[26] = system: Echinococcus granulosus; experiment: Parasiticidal activity against Echinococcus granulosus microcyst infected in kunming mouse assessed as reduction in cyst weight at 50 mg/kg, ip administered for 14 days relative to control; type: functional; design: scale not given: the % may be the effect or the level left; conditions: time 14 day
[27] = system: Echinococcus granulosus; experiment: Parasiticidal activity against Echinococcus granulosus microcyst infected in kunming mouse assessed as reduction in cyst weight at 50 mg/kg, ip administered for 28 days relative to control; type: functional; design: scale not given: the % may be the effect or the level left; conditions: time 28 day
[28] = system: Echinococcus granulosus; experiment: Parasiticidal activity against Echinococcus granulosus microcyst infected in kunming mouse assessed as reduction in cyst weight at 25 mg/kg, ip administered for 14 days relative to control; type: functional; design: scale not given: the % may be the effect or the level left; conditions: time 14 day
[29] = system: Echinococcus granulosus; experiment: Parasiticidal activity against Echinococcus granulosus microcyst infected in kunming mouse assessed as reduction in cyst weight at 25 mg/kg, ip administered for 28 days relative to control; type: functional; design: scale not given: the % may be the effect or the level left; conditions: time 28 day
[30] = system: Echinococcus granulosus; experiment: Parasiticidal activity against Echinococcus granulosus microcyst infected in kunming mouse assessed as reduction in cyst weight at 12.5 mg/kg, ip administered for 14 days relative to control; type: functional; design: scale not given: the % may be the effect or the level left; conditions: time 14 day
[31] = system: Echinococcus granulosus; experiment: Parasiticidal activity against Echinococcus granulosus microcyst infected in kunming mouse assessed as reduction in cyst weight at 12.5 mg/kg, ip administered for 28 days relative to control; type: functional; design: scale not given: the % may be the effect or the level left; conditions: time 28 day
[32] = system: Echinococcus granulosus; experiment: Parasiticidal activity against intraperitoneal cystic Echinococcus granulosus infected in Kunming mouse assessed as appearance of vacuole-like structure at 50 mg/kg, ip administered for 28 days by TEM analysis; type: functional, organism-based; conditions: time 28.0 day
[33] = system: Echinococcus granulosus; experiment: Parasiticidal activity against intraperitoneal cystic Echinococcus granulosus infected in Kunming mouse assessed as cell structure destruction at 50 mg/kg, ip administered for 28 days by TEM analysis; type: functional, organism-based; conditions: time 28.0 day
[34] = system: Echinococcus granulosus; experiment: Parasiticidal activity against intraperitoneal cystic Echinococcus granulosus infected in Kunming mouse assessed as disappearance of nucleolus at 50 mg/kg, ip administered for 28 days by TEM analysis; type: functional, organism-based; conditions: time 28.0 day
[35] = Neurotoxicity in Kunming mouse assessed as loosely arranged pyramidal cells in brain at 50 mg/kg, ip administered for 28 days by H and E staining based assay; type: toxicity, organism-based; conditions: in vivo, 672 h, time 28 day
[36] = Neurotoxicity in Kunming mouse assessed as swollen pyramidal cells in brain at 50 mg/kg, ip administered for 28 days by H and E staining based assay; type: toxicity, organism-based; conditions: in vivo, 672 h, time 28 day
[37] = Neurotoxicity in Kunming mouse assessed as deformed pyramidal cells in brain at 50 mg/kg, ip administered for 28 days by H and E staining based assay; type: toxicity, organism-based; conditions: in vivo, 672 h, time 28 day
[38] = system: Echinococcus granulosus; experiment: Induction of autophagy in Echinococcus granulosus protoscolices assessed as decrease in p62 expression level at 5 uM measured after 4 days by Western blot analysis; type: functional, organism-based; conditions: time 4.0 day
[39] = system: Echinococcus granulosus; experiment: Induction of autophagy in Echinococcus granulosus protoscolices assessed as increase in ATG5 expression level at 5 uM measured after 4 days by Western blot analysis; type: functional, organism-based; conditions: time 4.0 day
[40] = system: Echinococcus granulosus; experiment: Induction of autophagy in Echinococcus granulosus protoscolices assessed as increase in Beclin1 expression level at 5 uM measured after 4 days by Western blot analysis; type: functional, organism-based; conditions: time 4.0 day
[41] = system: Echinococcus granulosus; experiment: Parasiticidal activity against Echinococcus granulosus protoscolices assessed as lethal effect at 0.5 to 5 uM by eosin exclusion test; type: functional, organism-based; conditions: dose 0.5-5 µM, TDE = time-dependent effect
[42] = system: Echinococcus granulosus; experiment: Potency index, ratio of Albendazole LC50 to test compound LC50 for Parasiticidal activity against Echinococcus granulosus protoscolices; type: functional
[43] = system: Echinococcus granulosus; experiment: Parasiticidal activity against Echinococcus granulosus protoscolices assessed as change in ultrastructure at 5 uM incubated for 4 days by scanning electron microscopy; type: functional, organism-based; conditions: time 4.0 day
[44] = Neurotoxicity in Kunming mouse assessed as effect on hippocampal structure at 50 mg/kg, ip administered for 28 days by TEM analysis; type: toxicity, organism-based; conditions: in vivo, 672 h, time 28 day
[45] = Neurotoxicity in Kunming mouse assessed as effect on hippocampal arrangement at 50 mg/kg, ip administered for 28 days by TEM analysis; type: toxicity, organism-based; conditions: in vivo, 672 h, time 28 day
[46] = Neurotoxicity in Kunming mouse assessed as effect on heterochromatin at 50 mg/kg, ip administered for 28 days by TEM analysis; type: toxicity, organism-based; conditions: in vivo, 672 h, time 28 day
[47] = Neurotoxicity in Kunming mouse assessed as organelles damage at 50 mg/kg, ip administered for 28 days by TEM analysis; type: toxicity, organism-based; conditions: in vivo, 672 h, time 28 day
[48] = Neurotoxicity in Kunming mouse assessed as nuclei damage at 50 mg/kg, ip administered for 28 days by TEM analysis; type: toxicity, organism-based; conditions: in vivo, 672 h, time 28 day

Structure (SMILES): COc1ccc(-c2nc(NC(=O)c3ccc(CN4CCC(O)CC4)cc3)cc3c2[nH]c2ccccc23)cc1
- LC50 [1]: 1610 nM
- Activity [2]: >90%
- Activity [3]: Dose-Dependent Effect
- Activity [4]: >50%
- Activity [5]: Active
- Activity [6]: Active
- Activity [7]: Active
- Activity [8]: Active
- Activity [9]: Active
- Activity [10]: Active
- Activity [11]: 67.5%
- Activity [12]: Active
- Activity [13]: Active
- Activity [14]: Active
- Cmax [15]: 3040 ng/mL
- AUC(0-inf) [16]: 3000 ng·h/mL
- half-life [17]: 3.11 h
- half-life [18]: 9.08 h
- bioavailability [19]: 42.4%
- Activity [20]: 13.7 mg
- Activity [21]: 12.6 mg
- Activity [22]: 18.1 mg
- Activity [23]: 15.2 mg
- Activity [24]: 20.9 mg
- Activity [25]: 17.8 mg
- Activity [26]: 73.35%
- Activity [27]: 76.87%
- Activity [28]: 64.79%
- Activity [29]: 72.05%
- Activity [30]: 59.41%
- Activity [31]: 51.12%
- Activity [32]: Active
- Activity [33]: Active
- Activity [34]: Active
- Activity [35]: Non-Toxic
- Activity [36]: Non-Toxic
- Activity [37]: Non-Toxic
- Activity [38]: Active
- Activity [39]: Active
- Activity [40]: Active
- Activity [41]: Tde
- RatioLC50 [42]: 95
- Activity [43]: Active
- Activity [44]: Non-Toxic
- Activity [45]: Non-Toxic
- Activity [46]: Non-Toxic
- Activity [47]: Non-Toxic
- Activity [48]: Non-Toxic

From ChEMBL document CHEMBL5344429, “1,3-Substituted β-Carboline Derivatives as Potent Chemotherapy for the Treatment of Cystic Echinococcosis” (J Med Chem, 2023)
